Each compound was assayed against T1, MerTK (Homo sapiens, UniProt Q12866) (assay: PAKT HTRF-HUVEC assay (pAkt Ser473 HTRF after anti-human MerTK-XL stimulation)). Conditions: HUVEC cells, 1 hour compound, stimulated with anti-human MerTK-XL 1 ug/mL for 10 minutes, read-out: inhibition of MerTK.
T1 construct: Seed HUVECs (10K cells/well) in EBM-2 complete media; host or cells: HUVEC (primary human umbilical vein endothelial cells)
T1 sequence (Q12866 21-999): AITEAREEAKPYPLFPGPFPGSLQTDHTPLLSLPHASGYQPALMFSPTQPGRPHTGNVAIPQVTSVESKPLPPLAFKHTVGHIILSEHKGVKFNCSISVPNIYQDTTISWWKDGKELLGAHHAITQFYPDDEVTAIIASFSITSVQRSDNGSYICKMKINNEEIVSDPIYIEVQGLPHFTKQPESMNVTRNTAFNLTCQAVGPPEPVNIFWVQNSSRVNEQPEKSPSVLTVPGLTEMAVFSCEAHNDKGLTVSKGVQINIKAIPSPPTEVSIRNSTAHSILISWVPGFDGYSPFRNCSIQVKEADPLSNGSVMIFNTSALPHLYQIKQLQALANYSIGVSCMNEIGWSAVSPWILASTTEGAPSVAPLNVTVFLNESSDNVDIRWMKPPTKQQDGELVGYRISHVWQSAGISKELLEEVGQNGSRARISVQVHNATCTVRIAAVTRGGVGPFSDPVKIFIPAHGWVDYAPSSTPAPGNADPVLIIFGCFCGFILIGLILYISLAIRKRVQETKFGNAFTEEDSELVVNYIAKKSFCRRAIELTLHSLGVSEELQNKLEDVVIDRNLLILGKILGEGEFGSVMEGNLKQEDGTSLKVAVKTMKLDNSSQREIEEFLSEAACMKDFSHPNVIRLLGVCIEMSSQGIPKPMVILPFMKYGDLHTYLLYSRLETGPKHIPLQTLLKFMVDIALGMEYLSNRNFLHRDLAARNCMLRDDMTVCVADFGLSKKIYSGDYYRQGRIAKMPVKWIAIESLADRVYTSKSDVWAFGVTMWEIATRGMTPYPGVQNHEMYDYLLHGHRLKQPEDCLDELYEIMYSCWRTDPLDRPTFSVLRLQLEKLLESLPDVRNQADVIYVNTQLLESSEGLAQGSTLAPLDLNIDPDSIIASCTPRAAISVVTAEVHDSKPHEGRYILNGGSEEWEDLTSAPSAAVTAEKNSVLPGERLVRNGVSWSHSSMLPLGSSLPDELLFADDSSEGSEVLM
Type: cell-based
Description: Example 4: PAKT HTRF-HUVEC Assay Phospho Akt (Ser473) Assay kit-10,000 tests (Cisbio US, 64[…]) HUVEC cells (Lonza, CC-2519) Anti-human MerTK antibody (Clone 125518) (R&D Systems, MAB8912) Method Seed HUVECs (10K cells/well) in EBM-2 complete media (EBM-2 basal medium plus EGM-2 BulletKit supplements) overnight at 37° C., 5% CO2 in Costar 96-well white clear-bottom plates. Remove culture media and starve cells for 3-4 hours in 50 μL/well EBM-2 basal medium. Perform serial dilution of compounds in DMSO from 2.5 mM in 4-fold dilutions, and then dilute 1:125 in EBM-2 basal media. Mix 50 μL/well 2x compounds with 50 μL/well HUVECs in duplicate in Costar 96-well white clear-bottom plates. Incubate plates for 1 hour at 37° C., 5% CO2. Cross-link anti-human MerTK antibody to Biotin-SP-conjugated anti-mouse IgG antibody (1:1) to give final concentrations of 5 ug/mL of anti-human MerTK-XL. Stimulate HUVECs with 25 μL/well 5x anti-human MerTK-XL to give final concentrations of 1 ug/mL for 10 minutes at 37° C., 5% CO2. Completely remove media and lyse HUVECs with 40 uL/WELL per well of Cisbio HTRF 1× lysis buffer. Performed pAkt(Ser473) HTRF assay in ProxiPlate-384 Plus, white 384-shallow well microplate according to the vendor protocol and read plates with a SpectralMax Paradigm plate reader. Enter the HTRF values into Athena (Rigel) for curve fitting, EC50 calculation, and database storage.

| EC50 [nM] | SMILES |
| --- | --- |
| 36.3 | O=c1c2cc(CN3CCSCC3)ccc2c2cnc(NCC3CC3)nc2n1[C@H]1CC[C@H](O)CC1 [Compound 53, trans-3-((Cyclopropylmethyl)amino)-5-(4-hydroxycyclohexyl)-8-(thiomorpholinomethyl)pyrimido [4,5-c]isoquinolin-6(5H)-one] |
| 309 | O=c1c2cc(CN3CCNCC3)ccc2c2cnc(NCC3CC3)nc2n1[C@H]1CC[C@H](O)CC1 [Compound 54, trans-3-((Cyclopropylmethyl)amino)-5-(4-hydroxycyclohexyl)-8-(piperazin-1-ylmethyl)pyrimido[4,5-c]isoquinolin-6(5H)-one] |
| 51.2 | CC(C)CNc1ncc2c3ccc(CN4CCN(C)CC4)cc3c(=O)n([C@H]3CC[C@H](O)CC3)c2n1 [Compound 56, trans-5-(4-Hydroxycyclohexyl)-3-(isobutylamino)-8-((4-methylpiperazin-1-yl)methyl)pyrimido[4,5-c]isoquinolin-6(5H)-one] |
| 115 | O=c1c2cc(CN3CCN4CCC3CC4)ccc2c2cnc(NCC3CC3)nc2n1[C@H]1CC[C@H](O)CC1 [Compound 58, trans-8-((1,4-Diazabicyclo[3.2.2]nonan-4-yl)methyl)-3-((cyclopropylmethyl)amino)-5-(4-hydroxycyclohexyl)pyrimido [4,5-c]isoquinolin-6(5H)-one] |
| 292 | CN1CCN(Cc2ccc3c(c2)c(=O)n([C@H]2CC[C@H](OC(N)=O)CC2)c2nc(NCC4CC4)ncc32)CC1 [Compound 59, trans-4-(3-((Cyclopropylmethyl)amino)-8-((4-methylpiperazin-1-yl)methyl)-6-oxopyrimido[4,5-c]isoquinolin-5(6H)-yl)cyclohexyl carbamate] |
| 4.2 | CC(C)(C)N1CCN(Cc2ccc3c(c2)c(=O)n([C@H]2CC[C@H](O)CC2)c2nc(NCC4CC4)ncc32)CC1 [Compound 60, trans-8-((4-(tert-butyl)piperazin-1-yl)methyl)-3-((cyclopropylmethyl)amino)-5-(4-hydroxycyclohexyl)pyrimido [4,5-c]isoquinolin-6(5H)-one] |
| 23.1 | CCCCNc1ncc2c3ccc(N4CCN(C)CC4)cc3c(=O)n([C@H]3CC[C@H](O)CC3)c2n1 [Compound 61, trans-3-(Butylamino)-5-(4-hydroxycyclohexyl)-8-(4-methylpiperazin-1-yl)pyrimido[4,5-c]isoquinolin-6(5H)-one] |
| 95.2 | CCCCNc1ncc2c3ccc(N4CCOCC4)cc3c(=O)n([C@H]3CC[C@H](O)CC3)c2n1 [Compound 62, trans-3-(Butylamino)-5-(4-hydroxycyclohexyl)-8-morpholinopyrimido[4,5-c]isoquinolin-6(5H)-one] |
| 138 | CCCCNc1ncc2c3ccc(N4CCN(C)CC4)cc3c(=O)n([C@H]3CC[C@@H](O)CC3)c2n1 [Compound 63, cis-3-(Butylamino)-5-(4-hydroxycyclohexyl)-8-(4-methylpiperazin-1-yl)pyrimido[4,5-c]isoquinolin-6(5H)-one] |
| 78.3 | CCCCNc1ncc2c3ccc(N4CCN(C)CC4)cc3c(=O)n(CC3CCC(N)CC3)c2n1 (stereo not shown) [Compound 65, 5-((4-Aminocyclohexyl)methyl)-3-(butylamino)-8-(4-methylpiperazin-1-yl)pyrimido[4,5-c]isoquinolin-6(5H)-one] |
| 298 | CN1CC2(C1)CN(c1ccc3c(c1)c(=O)n([C@H]1CC[C@H](O)CC1)c1nc(NC4CC(F)(F)C4)ncc31)C2 [Compound 66, trans-3-((3,3-Difluorocyclobutyl)amino)-5-(4-hydroxycyclohexyl)-8-(6-methyl-2,6-diazaspiro[3.3]heptan-2-yl)pyrimido[4,5-c]isoquinolin-6(5H)-one] |
| 8030 | O=c1c2cc(N3CC4(COC4)C3)ccc2c2cnc(NC3CC(F)(F)C3)nc2n1[C@H]1CC[C@H](O)CC1 [Compound 67, trans-3-((3,3-difluorocyclobutyl)amino)-5-(4-hydroxycyclohexyl)-8-(2-oxa-6-azaspiro[3.3]heptan-6-yl)pyrimido[4,5-c]isoquinolin-6(5H)-one] |
| 78.4 | CCCCNc1ncc2c3ccc(N4CC5(COC5)C4)cc3c(=O)n([C@H]3CC[C@H](O)CC3)c2n1 [Compound 68, trans-3-(Butylamino)-5-(4-hydroxycyclohexyl)-8-(2-oxa-6-azaspiro[3.3]heptan-6-yl)pyrimido[4,5-c]isoquinolin-6(5H)-one] |
| 20.4 | CCCCNc1ncc2c3ccc(N4CCN(C(C)C)CC4)cc3c(=O)n([C@H]3CC[C@H](O)CC3)c2n1 [Compound 69, trans-3-(Butylamino)-5-(4-hydroxycyclohexyl)-8-(4-isopropylpiperazin-1-yl)pyrimido[4,5-c]isoquinolin-6(5H)-one] |
| 184 | CCCCNc1ncc2c3ccc(N4CCN(C(C)C)CC4)cc3c(=O)n(C3CCC(=O)CC3)c2n1 [Compound 70, 3-(Butylamino)-8-(4-isopropylpiperazin-1-yl)-5-(4-oxocyclohexyl)pyrimido[4,5-c]isoquinolin-6(5H)-one] |
| 33.4 | CCCCNc1ncc2c3ccc(N4CCC(N5CCCC5)CC4)cc3c(=O)n([C@H]3CC[C@H](O)CC3)c2n1 [Compound 71, trans-3-(Butylamino)-5-(4-hydroxycyclohexyl)-8-(4-(pyrrolidin-1-yl)piperidin-1-yl)pyrimido[4,5-c]isoquinolin-6(5H)-one] |
| 220 | CCCCNc1ncc2c3ccc(N4CCC(N5CCCC5)CC4)cc3c(=O)n(C3CCC(=O)CC3)c2n1 [Compound 72, 3-(Butylamino)-5-(4-oxocyclohexyl)-8-(4-(pyrrolidin-1-yl)piperidin-1-yl)pyrimido[4,5-c]isoquinolin-6(5H)-one] |
| 21 | CCCCNc1ncc2c3ccc(N4CCN5CCC[C@H]5C4)cc3c(=O)n([C@H]3CC[C@H](O)CC3)c2n1 [Compound 73, trans-3-(Butylamino)-8-((S)-hexahydropyrrolo[1,2-a]pyrazin-2(1H)-yl)-5-((1r,4S)-4-hydroxycyclohexyl)pyrimido [4,5-c]isoquinolin-6(5H)-one] |
| 218 | CN1CC2(C1)CN(c1ccc3c(c1)c(=O)n([C@H]1CC[C@H](O)CC1)c1nc(NC4CC(F)C4)ncc31)C2 (stereo partly drawn) [Compound 74, trans-3-((3-Fluorocyclobutyl)amino)-5-(4-hydroxycyclohexyl)-8-(6-methyl-2,6-diazaspiro[3.3]heptan-2-yl)pyrimido[4,5-c]isoquinolin-6(5H)-one] |
| 1080 | O=c1c2cc(N3CC4(COC4)C3)ccc2c2cnc(NC3CC(F)C3)nc2n1[C@H]1CC[C@H](O)CC1 (stereo partly drawn) [Compound 75, trans-3-((3-Fluorocyclobutyl)amino)-5-(4-hydroxycyclohexyl)-8-(2-oxa-6-azaspiro[3.3]heptan-6-yl)pyrimido[4,5-c]isoquinolin-6(5H)-one] |
| 11.5 | CCCCNc1ncc2c3ccc(N4CCN5CCC[C@@H]5C4)cc3c(=O)n([C@H]3CC[C@H](O)CC3)c2n1 [Compound 76, trans-3-(Butylamino)-8-((R)-hexahydropyrrolo[1,2-a]pyrazin-2(1H)-yl)-5-(4-hydroxycyclohexyl)pyrimido [4,5-c]isoquinolin-6(5H)-one] |
| 21.9 | CCCCNc1ncc2c3ccc(N4CCN(C5COC5)CC4)cc3c(=O)n([C@H]3CC[C@H](O)CC3)c2n1 [Compound 77, trans-3-(Butylamino)-5-(4-hydroxycyclohexyl)-8-(4-(oxetan-3-yl)piperazin-1-yl)pyrimido[4,5-c]isoquinolin-6(5H)-one] |
